From ChEMBL document CHEMBL1933004, “Novel (S)-1,2,3,4-tetrahydroisoquinoline-3-carboxylic acids: peroxisome proliferator-activated receptor γ selective agonists with protein-tyrosine phosphatase 1B inhibition” (Bioorg Med Chem, 2012)

Tests used:
Rattus norvegicus [1] = assay: Effect on RBC count in Sprague-Dawley rat at 25 mg/kg after 28 days (reference value: 832 +/- 25.2 x 10 ' 4/micro L); assay type: functional
Rattus norvegicus [2] = assay: Effect on RBC count in Sprague-Dawley rat at 12.5 mg/kg after 28 days (reference value: 832 +/- 25.2 x 10 ' 4/micro L); assay type: functional
Rattus norvegicus [3] = assay: Effect on RBC count in Sprague-Dawley rat at 100 mg/kg after 28 days (reference value: 832 +/- 25.2 x 10 ' 4/micro L); assay type: functional
Rattus norvegicus [4] = assay: Effect on hematocrit level in Sprague-Dawley rat at 50 mg/kg after 28 days (reference value: 47.5 +/- 0.6 %); assay type: functional
Rattus norvegicus [5] = assay: Effect on hematocrit level in Sprague-Dawley rat at 100 mg/kg after 28 days (reference value: 47.5 +/- 0.6 %); assay type: functional
Mus musculus [6] = assay: Hypoglycemic activity in diabetic KK-Ay mouse model assessed as decrease in glucose level at 10 mg/kg, po qd for 4 days relative to untreated control; assay type: functional; parameters: scale not given: the % may be the effect or the level left
Rattus norvegicus [7] = assay: Effect on RBC count in Sprague-Dawley rat at 50 mg/kg after 28 days (reference value: 832 +/- 25.2 x 10 ' 4/micro L); assay type: functional
[8] = target: T1, Peroxisome proliferator-activated receptor alpha (Homo sapiens) (UniProt Q07869); assay: Transactivation of human full length PPARalpha expressed in COS1 cells co-transfected with RXRalpha after 24 hrs by luciferase reporter gene assay relative to WY14643; assay type: cell-based; conditions: COS-1
T1 sequence (whole entry): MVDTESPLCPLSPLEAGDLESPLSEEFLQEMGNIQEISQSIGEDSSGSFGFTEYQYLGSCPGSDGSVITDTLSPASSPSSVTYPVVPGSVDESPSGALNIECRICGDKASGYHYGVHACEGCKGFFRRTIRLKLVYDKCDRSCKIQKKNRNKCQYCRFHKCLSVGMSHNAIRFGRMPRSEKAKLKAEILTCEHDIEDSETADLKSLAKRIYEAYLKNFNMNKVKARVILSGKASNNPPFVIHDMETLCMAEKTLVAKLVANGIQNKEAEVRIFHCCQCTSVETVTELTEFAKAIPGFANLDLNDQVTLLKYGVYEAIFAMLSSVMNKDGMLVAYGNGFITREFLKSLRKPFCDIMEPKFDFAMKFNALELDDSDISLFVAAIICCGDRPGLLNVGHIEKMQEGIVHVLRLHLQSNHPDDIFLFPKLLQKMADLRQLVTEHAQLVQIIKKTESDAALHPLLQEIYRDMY

Mus musculus [9] = assay: Hypotriglyceridemic activity in diabetic KK-Ay mouse model assessed as decrease in triglyceride level at 10 mg/kg, po qd for 14 days (reference value: 819.9 +/- 135.5 mg/dl); assay type: functional
Mus musculus [10] = assay: Hypoglycemic activity in diabetic KK-Ay mouse model assessed as decrease in glucose level at 10 mg/kg, po qd for 14 days (reference value: 648.4 +/- 77.1 mg/dl); assay type: functional
Mus musculus [11] = assay: Hypoglycemic activity in diabetic KK-Ay mouse model assessed as decrease in glucose level at 3 mg/kg, po qd for 14 days (reference value: 648.4 +/- 77.1 mg/dl); assay type: functional
Rattus norvegicus [12] = assay: Effect on hematocrit level in Sprague-Dawley rat at 25 mg/kg after 28 days (reference value: 47.5 +/- 0.6 %); assay type: functional
Mus musculus [13] = assay: Hypotriglyceridemic activity in po dosed diabetic KK-Ay mouse model assessed as decrease in triglyceride level compound administered for 14 days; assay type: functional; conditions: for ED50: 336 h
[14] = target: T2, Tyrosine-protein phosphatase non-receptor type 1 (Homo sapiens, UniProt P18031); assay: Inhibition of PTB1B using pNPP as substrate after 30 mins
T2 sequence (P18031 whole entry): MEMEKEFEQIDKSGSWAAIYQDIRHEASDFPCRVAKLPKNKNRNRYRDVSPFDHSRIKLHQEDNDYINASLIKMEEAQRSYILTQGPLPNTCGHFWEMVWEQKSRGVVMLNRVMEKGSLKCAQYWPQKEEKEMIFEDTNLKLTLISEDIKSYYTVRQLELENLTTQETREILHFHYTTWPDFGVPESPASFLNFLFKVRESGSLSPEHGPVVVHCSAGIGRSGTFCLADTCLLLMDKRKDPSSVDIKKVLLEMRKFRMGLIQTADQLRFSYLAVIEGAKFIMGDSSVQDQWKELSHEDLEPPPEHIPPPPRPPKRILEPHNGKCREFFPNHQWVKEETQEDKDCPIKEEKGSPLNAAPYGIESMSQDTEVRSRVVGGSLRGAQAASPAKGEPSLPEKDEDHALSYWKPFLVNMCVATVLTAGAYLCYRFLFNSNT

Mus musculus [15] = assay: Hypotriglyceridemic activity in diabetic KK-Ay mouse model assessed as decrease in triglyceride level at 30 mg/kg, po qd for 14 days (reference value: 819.9 +/- 135.5 mg/dl); assay type: functional
Rattus norvegicus [16] = assay: Effect on hematocrit level in Sprague-Dawley rat at 12.5 mg/kg after 28 days (reference value: 47.5 +/- 0.6 %); assay type: functional
Mus musculus [17] = assay: Hypotriglyceridemic activity in diabetic KK-Ay mouse model assessed as decrease in triglyceride level at 3 mg/kg, po qd for 14 days (reference value: 819.9 +/- 135.5 mg/dl); assay type: functional
[18] = Cmax in Sprague-Dawley rat at 10 mg/kg after 0.5 to 8 hrs by HPLC analysis; assay type: ADME, organism-based; parameters: dose 10 mg/kg; conditions: in vivo
Mus musculus [19] = assay: Hypoglycemic activity in diabetic KK-Ay mouse model assessed as decrease in glucose level at 30 mg/kg, po qd for 14 days (reference value: 648.4 +/- 77.1 mg/dl); assay type: functional
Mus musculus [20] = assay: Hypoglycemic activity in po dosed diabetic KK-Ay mouse model assessed as decrease in glucose level compound administered for 14 days; assay type: functional; conditions: for ED50: 336 h
Rattus norvegicus [21] = assay: Effect on hematocrit level in Sprague-Dawley rat at 12.5 mg/kg after 28 days (reference value: 49.4 +/- 0.4 %); assay type: functional
Rattus norvegicus [22] = assay: Effect on hematocrit level in Sprague-Dawley rat at 100 mg/kg after 28 days (reference value: 49.4 +/- 0.4 %); assay type: functional
Rattus norvegicus [23] = assay: Effect on RBC count in Sprague-Dawley rat at 25 mg/kg after 28 days (reference value: 862 +/- 21.5 x 10 ' 4/micro L); assay type: functional
Mus musculus [24] = assay: Ratio of rosiglitazone ED50 to compound ED50 for po dosed diabetic KK-Ay mouse model; assay type: functional
Rattus norvegicus [25] = assay: Effect on RBC count in Sprague-Dawley rat at 12.5 mg/kg after 28 days (reference value: 862 +/- 21.5 x 10 ' 4/micro L); assay type: functional
Rattus norvegicus [26] = assay: Effect on hematocrit level in Sprague-Dawley rat at 25 mg/kg after 28 days (reference value: 49.4 +/- 0.4 %); assay type: functional
[27] = target: T3, Peroxisome proliferator-activated receptor gamma (Homo sapiens) (UniProt P37231); assay: Transactivation of human full length PPARgamma expressed in COS1 cells co-transfected with RXRalpha after 24 hrs by luciferase reporter gene assay relative to farglitazar; assay type: cell-based; conditions: COS-1
T3 sequence (whole entry): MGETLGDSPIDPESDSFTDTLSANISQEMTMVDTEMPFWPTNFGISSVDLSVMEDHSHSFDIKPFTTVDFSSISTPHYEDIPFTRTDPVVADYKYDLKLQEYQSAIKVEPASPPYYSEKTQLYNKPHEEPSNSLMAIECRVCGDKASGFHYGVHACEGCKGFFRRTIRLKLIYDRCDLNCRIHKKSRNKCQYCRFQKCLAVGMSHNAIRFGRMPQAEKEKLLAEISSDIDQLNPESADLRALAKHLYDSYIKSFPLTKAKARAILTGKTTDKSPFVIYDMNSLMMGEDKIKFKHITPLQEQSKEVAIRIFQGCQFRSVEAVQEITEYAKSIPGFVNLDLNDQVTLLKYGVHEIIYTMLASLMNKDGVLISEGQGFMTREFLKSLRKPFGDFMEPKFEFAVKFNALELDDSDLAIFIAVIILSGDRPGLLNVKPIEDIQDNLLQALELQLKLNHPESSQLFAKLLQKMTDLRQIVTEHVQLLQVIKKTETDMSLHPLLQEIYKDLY

[28] = target: T4, Peroxisome proliferator-activated receptor gamma (Homo sapiens, UniProt P37231); assay: Transactivation of human full length PPARgamma expressed in COS1 cells co-transfected with RXRalpha after 24 hrs by luciferase reporter gene assay; assay type: cell-based, COS-1
T4 sequence (P37231 whole entry): T3 sequence (whole entry)

Rattus norvegicus [29] = assay: Effect on hematocrit level in Sprague-Dawley rat at 50 mg/kg after 28 days (reference value: 49.4 +/- 0.4 %); assay type: functional
Rattus norvegicus [30] = assay: Effect on RBC count in Sprague-Dawley rat at 100 mg/kg after 28 days (reference value: 862 +/- 21.5 x 10 ' 4/micro L); assay type: functional
Rattus norvegicus [31] = assay: Effect on RBC count in Sprague-Dawley rat at 50 mg/kg after 28 days (reference value: 862 +/- 21.5 x 10 ' 4/micro L); assay type: functional
[32] = target: T3, Peroxisome proliferator-activated receptor gamma (Homo sapiens); assay: Ratio of rosiglitazone EC50 to compound EC50 for human full length PPARgamma

| Emax [8] [%] | IC50 [14] [nM] | Cmax [18] [µM] | SMILES | Activity (Mus musculus [6]) [%] | Activity (Mus musculus [9]) [mg/dL] | Activity (Mus musculus [10]) [mg/dL] | Activity (Mus musculus [11]) [mg/dL] | Activity (Mus musculus [13]) | ED50 (Mus musculus [13]) [mg/kg] | Activity (Mus musculus [15]) [mg/dL] | Activity (Mus musculus [17]) [mg/dL] | Activity (Mus musculus [19]) [mg/dL] | Activity (Mus musculus [20]) | ED50 (Mus musculus [20]) [mg/kg] | other results |
| --- | --- | --- | --- | --- | --- | --- | --- | --- | --- | --- | --- | --- | --- | --- | --- |
| 105 | > 30000 | 34.7 | CN(CCOc1ccc(CC2SC(=O)NC2=O)cc1)c1ccccn1 (stereo not drawn) [ROSIGLITAZONE] | 48 | 672.3 | 392.9 | 413.5 | Dose-dependent effect | > 30 | 504.9 | 593.3 | 320.6 | Dose-dependent effect | 23 | Activity (Rattus norvegicus [1]): 727 ×10⁴ /uL; Activity (Rattus norvegicus [2]): 791 ×10⁴ /uL; Activity (Rattus norvegicus [3]): 679 ×10⁴ /uL; Activity (Rattus norvegicus [4]): 43.1%; Activity (Rattus norvegicus [5]): 42.3%; Activity (Rattus norvegicus [7]): 724 ×10⁴ /uL; Activity (Rattus norvegicus [12]): 43.9%; Activity (Rattus norvegicus [16]): 46.3% |
| < 50 | 1180 | 4.5 | C/C=C/C=C/C(=O)N1Cc2cc(OCCc3nc(/C=C/CCC(C)C)oc3C)ccc2C[C@H]1C(=O)O.CC(C)(C)N | 55 | 243.8 | 273.7 | 385.2 | Dose-dependent effect | 6.2 | 318.4 | 625.6 | 252.5 | Dose-dependent effect | 4.3 | Activity (Rattus norvegicus [21]): 49.7%; Activity (Rattus norvegicus [22]): 47.8%; Activity (Rattus norvegicus [23]): 807 ×10⁴ /uL; Ratio ED50 (Mus musculus [24]): 5; Activity (Rattus norvegicus [25]): 868 ×10⁴ /uL; Activity (Rattus norvegicus [26]): 47.1%; Emax [27]: 98%; EC50 [28]: 30 nM; Activity (Rattus norvegicus [29]): 48.2%; Activity (Rattus norvegicus [30]): 817 ×10⁴ /uL; Activity (Rattus norvegicus [31]): 835 ×10⁴ /uL; Ratio EC50 [32]: 4 |
